Results taken from a melting point compilation (Tetko et al.; mined from patent text by program, amines drawn as free bases though some values may be those of a salt).
Residues, ends and D or L forms follow the SMILES beside them. *: point of attachment. Boc = CC(C)(C)OC(=O)*

Point of comparison: `CCCCCCCCCCCCOC(C)c1ccc(-c2ccc(C(=O)O)cc2)cc1` (single isomer, unassigned; (+)), melting point 70.5 °C. Against it:
- COc1ccc(Cl)cc1NC(=O)[C@H]1[C@H](c2cccc(C)c2)C1(C)C (relative stereo) — higher, 148 to 150 °C
- O=C(CC12CC3CC(CC(C3)C1)C2)Nc1ccc(O)cc1Cl — higher, 224 to 225 °C
- O=S1(=O)NCc2ccccc2O1 — higher, 89 to 90 °C
- O=C(c1ccccc1)c1cc([N+](=O)[O-])ccc1-n1nc(CCl)cc1CCl — higher, 152 to 155 °C
- COc1ccc(C2=NN(Cc3ccc(C(=O)O)cc3)C(=O)[C@H]3CC=CC[C@@H]23)cc1OC (relative stereo) — higher, 192 to 193 °C
- CCCCN1C2=NCCN2C(c2ccccc2)c2cc(Cl)ccc21 (stereo not given) — higher, 97 to 97.5 °C
- O=C(O)CCN1CCN(c2cccc(C(F)(F)F)c2)CC1 — higher, 228 to 230 °C
- C[C@@H](NC(=O)c1cnn(-c2ccc(C(F)(F)F)cc2)c1C(F)(F)F)[C@](O)(Cn1cncn1)c1ccc(F)cc1F — higher, 141 to 143 °C
- CCCc1c(OCCCCCCc2ccc(C(C)(C)C)c(O)c2O)ccc(C(=O)O)c1O — higher, 85 to 87 °C
- CC1(c2nnn[nH]2)CC(Cl)(I)C=CC1N (stereo not given) — higher, 205 to 208 °C
- NS(=O)(=O)c1ccc(-n2nc(C(F)(F)F)cc2-c2nc3cccc(F)c3s2)cc1 — higher, 251 to 253 °C
- COc1c(O)cc(C(C)(C)C)c(O)c1C(=O)Nc1ccc(S(=O)(=O)C(F)(F)F)cc1Cl — higher, 171 to 175 °C
- c1ccc(CCNc2cc(-n3cccn3)nc(-c3ccco3)n2)nc1 — higher, 110 to 111 °C
- O=C(O)c1nccc(Cl)c1O — higher, 228 °C
- COc1cc(C(=O)Cc2ccccc2)cc(Cl)c1Cl — higher, 126 to 129 °C
- CC1(C)OC(=O)C(Oc2ncnc3ccccc23)=C1c1ccc(S(C)(=O)=O)cc1 — higher, 174 to 177 °C
- CCOC(=O)c1sc(=O)[nH]c1C(F)(F)C(F)(F)F — higher, 95 to 97 °C
- CSc1ccc(C(=O)O)c([N+](=O)[O-])c1 — higher, 165 to 168 °C
- Clc1cccc(CCC2(Cn3ccnc3)SCCS2)c1 — higher, 224 to 227 °C
- O=C(NCC1CCCO1)c1c[nH]c2ccccc2c1=O (stereo not given) — higher, 205 to 209 °C
- Cc1ccc(C)n1-c1cccc(C(=O)O)c1 — higher, 148 to 150 °C
- CCOc1ccnc(N2CCN(C(=O)c3ccccc3C#N)CC2)n1 — higher, 151 to 154 °C
- Cc1ccc(-c2nc(N)nc(N)n2)cn1 — higher, > 260 °C
- Cc1ccc(S(=O)(=O)N[C@@H](C)C(=O)O)cc1 — higher, 134 to 135 °C
- N#CCN1C(=O)COc2cc(F)ccc21 — higher, 111 to 113 °C
- Nc1nc2c(c(Nc3ccc(Cl)cc3)n1)-c1ccccc1C2 — higher, 216 to 217 °C
- COC(=O)COc1ccc(C(=O)CCN2CCN(c3ccncc3)CC2)cc1 — higher, 93 to 95 °C
- CC(=O)OCC(=O)C1C(C)CC2C3CC(F)C4=CC(=O)C=CC4(C)C34OC4CC21C (stereo not given) — higher, 154 to 162 °C
- Cc1ccc(C(=O)Nc2ccccc2C(N)=O)cc1 — higher, 206 to 208 °C
- CCOC(=O)c1cc(-n2c(OC)nc(C(F)(F)F)c(F)c2=O)c(F)cc1Cl — not separable, 69 to 72 °C
- CCc1cc(Cc2cc(CC)c(N=C=O)c(CC)c2)cc(CC)c1N=C=O — lower, 56 to 57 °C
- N#CC1=C(C2CCC2)Nc2n[nH]cc2C1c1cccc(C#N)c1Br (stereo not given) — higher, 278 °C
- CN(C)c1cc2c(cc1Cl)NC(=O)CC(c1cccc(-c3csc(CO)n3)c1)=N2 — higher, 176 to 178 °C
- CC(=O)NCC1CN(c2ccc(C(=O)c3cnc4n3CCS4)cc2)C(=O)O1 (stereo not given) — higher, 259 to 260 °C
- Cc1nc(N2C[C@@H](C)C[C@H](C)C2)c2nc(-c3ccccc3)cc-2[nH]1 (relative stereo) — higher, 226 to 227 °C
- Cc1ncc(-c2ccc(Cl)cc2)cc1C#N — higher, 158 to 159 °C
- O=C(O)c1ccc(-c2cccc3ccccc23)cc1 — higher, 221 to 224 °C
- Cn1c(=O)n(Cc2cccs2)c(=O)c2cc(C(=O)NCc3ccc4c(c3)OCO4)ccc21 — higher, 224 °C
- O=C(c1cccs1)c1cnn2c(-c3cccc(NCC4CCCCC4)c3)ccnc12 — higher, 101 to 104 °C
- C=C(CCCC(=O)N1CCC[C@@H](C(=O)OC(C)(C)C)N1)C(=O)OCC — lower, 63 to 65 °C
- O=c1ccc(-c2cccc(-c3ccc(=O)[nH]n3)c2)n[nH]1 — higher, > 250 °C
- COc1ccc2nc(NC(=O)C(CC3CCCC3)c3ccc(S(=O)(=O)N4CCOCC4)cc3)sc2n1 (stereo not given) — higher, 120 to 123 °C
- Nc1n[nH]c(Nc2ccccc2)n1 — higher, 158 to 159 °C
- O=C(N[C@@H](CN1CCC(=C2c3ccccc3C=Cc3ccccc32)CC1)C(=O)O)OCc1ccccc1 — higher, 178 to 179 °C
- CCOC(=O)c1cc(NCc2ccccc2)c(N2CCOCC2)c(S(N)(=O)=O)c1 — higher, 185 to 186 °C
- O=C(NCc1c[nH]c(-c2cc3nc(C(=O)O)c(=O)[nH]c3cc2[N+](=O)[O-])n1)Nc1ccccc1F — higher, 300 °C
- O=C(c1cccs1)c1cnn2c(-c3cccc(-c4nnn[nH]4)c3)ccnc12 — higher, 290 °C
- Cc1ccc(NC(=O)OC2CN3CCC2CC3)cc1 (stereo not given) — higher, 186 to 188 °C
- Oc1cccnc1Cc1cccc(Br)c1 — higher, 160 to 162 °C
- Cc1ccc2c(O)c(-c3cccc(Oc4ccccc4)c3)c(=O)[nH]c2c1 — higher, 299 to 300 °C
- CNC(=S)NS(=O)(=O)c1cc2c(cc1C)OCC(NC(=O)c1cc(Cl)ccc1OC)C2 (stereo not given) — higher, 207 to 208 °C
- CC(C)(C)OC(=O)CC(NC(=O)Nc1cccc(C(=O)O)c1)C(=O)Nc1ccccc1C(=O)c1ccccc1 (stereo not given) — higher, 175 to 180 °C
- CC1(C)Oc2ccc(C#N)cc2[C@@H](NC(=O)Nc2ccc3c(c2)CNC3)[C@@H]1O — higher, 215 to 217 °C
- CNC(=O)c1ccccc1Nc1nc(Nc2ccc3c(c2)OCCNC3=O)ncc1Cl — higher, 293 to 295 °C
- CCOc1cc(C(=O)O)cc(N)c1-c1ccccc1 — higher, 138 °C
- Cn1c(C(F)(F)F)ccc(-c2cc(S(=O)(=O)Cl)c(Cl)cc2F)c1=O — higher, 77 to 78 °C
- CN1CCN(c2ccccc2C=C2C(=O)Nc3ccc(Cl)cc32)CC1 — higher, 235 to 237 °C
- O=C(c1cccs1)c1cnn2c(-c3ccc(F)c(-c4ccc(CO)cc4)c3)ccnc12 — higher, 140 to 145 °C
- CCOC(=O)C1=CNC2=C(C(=S)Nc3ccccc3)CCC(C)N2C1=O (stereo not given) — higher, 173 to 175 °C
- COc1cc2nc(-c3ccccn3)nc(N)c2cc1OC — higher, 248 to 251 °C
- O=C(NCC12CC3CC(CC(C3)C1)C2)c1cc(-c2ccc(Cl)c(C(=O)O)n2)ccc1Cl — higher, 154 to 159 °C
- ClCC1CCN(C(c2ccccc2)c2ccccc2)CC1 — higher, 73 to 75 °C
- CCOC(=O)c1ccc(NCCCCCc2ccccc2)cc1 — lower, 63 to 64 °C
- CCOC(=O)C(C)=NNc1ccc2[nH]c(=O)[nH]c2c1 — higher, 220 °C
- CCc1ccsc1C(=O)O — higher, 106 to 109 °C
- CC12CCC(=O)C=C1CCC1C3CC(OCCOC4CCCCO4)C(O)(C(=O)CO)C3(C)CC(O)C12F (stereo not given) — higher, 196 to 200 °C
- CCOC1=CC2=CCc3cc(C#N)ccc3[C@]2(Cc2ccccc2)CC1 — higher, 164 to 165 °C
- CC(C)c1ccc(-c2csc(-c3ccc(C(=O)O)cc3)n2)cc1 — higher, 257 to 258 °C
- N#Cc1nn(-c2c(Cl)cc(C(F)(F)F)cc2Cl)c(Cl)c1C#CBr — higher, 153 °C
- O=C1NCC(CN2C(=O)C3(COc4cc5c(cc43)CCO5)c3ccccc32)O1 (stereo not given) — higher, 197 to 198 °C
- CCOC(=O)c1cc(C=O)c2ccccn2c1=O — higher, 179 to 181 °C
- CC12CCC3c4ccc(C(=O)O)cc4CCC3C1CCC2C(=O)c1ccccc1 (stereo not given) — higher, 210 to 215 °C
- CCOC(=O)C1=COc2cc(OC(C)=O)ccc2O1 — higher, 88 °C
- COCCOCCOCC(=O)N(C)c1c(I)c(N)c(I)c(C(=O)O)c1I — higher, 100 to 109 °C
- CCCn1c(=O)n(CC(C)O)c(=O)c2[nH]c(C34CC5CC(CC3C5)C4)nc21 (stereo not given) — higher, 195 to 197 °C
- CC(=O)Nc1cccc(C(=O)NCc2ccc(-n3c(-c4cccnc4N)nc4ccc(C)nc43)cc2)c1 — higher, 157 to 161 °C
- CCOC(=O)c1cn(-c2ccc(Cl)cn2)cn1 — higher, 163 to 164 °C
- O=[N+]([O-])c1ccc2c(c1)C(c1ccccc1)=NCc1cc(CO)nn1-2 — higher, 192 to 194 °C
- O=C(O)C1=Cc2cc(F)c(N3CCC4(C3)OCCCO4)nc2N(c2ccc(F)cc2F)C1 — higher, 145 to 146 °C
- COc1ccc(C(Cl)C(C)(C)[N+](=O)[O-])cc1 (stereo not given) — lower, 40 to 41 °C
- O=C(O)CO[C@@H]1CCCC[C@H]1NC(=S)Nc1ccccc1 (relative stereo) — higher, 147 to 149 °C
- COC(=O)CNC(=O)CNC(=O)OC(C)(C)C (Boc-Gly-Gly-OMe) — higher, 132 to 135 °C
- O=C(O)c1cc(-c2ccnc(Nc3cccc(C(F)(F)F)c3)n2)ccn1 — higher, 241 to 245 °C
- CC(C(=O)NCC(F)(F)C(F)(F)F)C(=O)NC1C(=O)N(C)c2cc(F)ccc2OC1C (stereo not given) — higher, 126 to 134 °C
- COc1cc(C2CCN(C[C@H](O)CO)CC2)ccc1Nc1ncc2ccc(-c3ccccc3OC)n2n1 — not separable, 66 to 80 °C
- O=C(CCl)c1ccc2c(c1)CN(C(=O)C(F)(F)F)CC2 — higher, 120 to 122 °C
- CC1CC(=O)NN=C1c1ccc(-n2ccc(CN(C)C)c2)cc1 (stereo not given) — higher, 167 to 168 °C
- Cc1onc(-c2ccccc2)c1-c1[nH]c2ccccc2c1CCC(=O)O — higher, 170 to 172 °C
- O=C(COc1ccccc1)COc1ccccc1 — lower, 55 to 57 °C
- COc1ccc(-c2cc(CCCN3CCN(C)CC3)c(=O)n(Cc3ccc(F)cc3)n2)cc1F — higher, 108 to 109 °C
- CC(=O)Oc1ccccc1Cn1nnnc1-c1cccc(Cl)c1Cl — higher, 195 to 196 °C
- O=[N+]([O-])c1ccc(C2OCCO2)nc1 — higher, 104 to 105 °C
- O=C(NCCC[C@H]1OC[C@H](c2cccc3cc(OCC4CC4)ccc32)CO1)Oc1ccc(Cl)cc1 — higher, 159 to 162 °C
- Cn1c(C(O)(C(F)(F)F)C(F)(F)F)cc(-c2ccc(F)cc2)c1-c1ccc(F)cc1 — higher, 130 to 131 °C
- OC1(c2cncs2)CCCc2cc(Cl)ccc21 (stereo not given) — higher, 108 to 109 °C
- Nc1nc2ccccc2c2c1ncn2CCOCCCc1cccs1 — higher, 130 to 132 °C
- Cc1nc2cc(C#N)cc(C#N)c2[nH]1 — higher, 290 to 292 °C
- Cc1cccc(C(=O)N(NC(=O)NS(=O)(=O)c2ccc(Cl)cc2)C(C)(C)C)c1 — higher, 184 to 188 °C
- Cn1c(=O)c2ccc(N)nc2n(C)c1=O — higher, 290 to 295 °C
